Measured values: the supplement of paper PMC10307832

Experiments:
Experiment in all cases: relative viability (nuclei count vs DMSO), 5 days (fraction); higher = more cells survive
[1] = test system: NCI-H520
How it was run: (§1)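 The day after seeding in 1536-well plates, lung cancer cell lines were treated by pin tool with a single drug, or with a fixed anchor-drug dose together with five library-drug doses (not always all listed) in √10 steps. After 5 days, a combined fix-and-stain solution (final 0.05% Triton X-100, 1% formaldehyde, 1 ug/ml Hoechst) was added. Nuclei counted on 4× images gave relative viability as treated counts over vehicle counts, reported as the median of duplicate plates.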

[2] = test system: HOP-62
How it was run: as §1

[3] = test system: NCI-H23
How it was run: as §1

[4] = test system: NCI-H441
How it was run: as §1

[5] = test system: NCI-H2170
How it was run: as §1

[6] = test system: LCLC-103H
How it was run: as §1

[7] = test system: NCI-H2023
How it was run: as §1

[8] = test system: NCI-H2347
How it was run: as §1

[9] = test system: EMC-BAC-2
How it was run: as §1

[10] = test system: NCI-H647
How it was run: as §1

[11] = test system: EPLC-272H
How it was run: as §1

[12] = test system: NCI-H2126
How it was run: as §1

[13] = test system: NCI-H650
How it was run: as §1

[14] = test system: NCI-H1437
How it was run: as §1

[15] = test system: NCI-H2405
How it was run: as §1

[16] = test system: NCI-H2009
How it was run: as §1

[17] = test system: HCC-44
How it was run: as §1

[18] = test system: NCI-H460
How it was run: as §1

[19] = test system: LOU-NH91
How it was run: as §1

[20] = test system: SW 1573
How it was run: as §1

[21] = test system: NCI-H1793
How it was run: as §1

[22] = test system: NCI-H727
How it was run: as §1

`O=c1[nH]c2ccccc2n1C1CCN(CCCC(c2ccc(F)cc2)c2ccc(F)cc2)CC1` [Pimozide] + Cc1nc(NC(=O)N2CCC[C@H]2C(N)=O)sc1-c1ccnc(C(C)(C)C(F)(F)F)c1 [Alpelisib] (partner 2 µM) gave a relative viability ([1]; first compound 0.08 µM) of 1.03, a relative viability ([1]; first compound 0.253 µM) of 0.88 and a relative viability ([1]; first compound 0.8 µM) of 0.992. For the same molecule, the relative viability ([1]; first compound 2.53 µM) was 0.947, the relative viability ([1]; first compound 8 µM) was 0.832 and the relative viability ([2]; first compound 0.08 µM) was 1.2. For the same molecule, the relative viability ([2]; first compound 0.253 µM) was 0.783, the relative viability ([2]; first compound 2.53 µM) was 0.904 and the relative viability ([2]; first compound 8 µM) was 0.794. The relative viability ([3]; first compound 0.08 µM) was 0.577, the relative viability ([3]; first compound 0.253 µM) was 0.575 and the relative viability ([3]; first compound 0.8 µM) was 0.718. It also gave a relative viability ([3]; first compound 2.53 µM) of 0.68, a relative viability ([3]; first compound 8 µM) of 0.745 and a relative viability ([4]; first compound 0.08 µM) of 1.05. The relative viability ([4]; first compound 0.253 µM) was 0.733, the relative viability ([4]; first compound 0.8 µM) was 0.854 and the relative viability ([4]; first compound 2.53 µM) was 0.574. For the same molecule, the relative viability ([4]; first compound 8 µM) was 0.442, the relative viability ([5]; first compound 0.08 µM) was 0.753 and the relative viability ([5]; first compound 0.253 µM) was 0.792. For the same molecule, the relative viability ([5]; first compound 0.8 µM) was 0.822, the relative viability ([5]; first compound 2.53 µM) was 0.74 and the relative viability ([5]; first compound 8 µM) was 0.714. For the same molecule, the relative viability ([6]; first compound 0.08 µM) was 0.939, the relative viability ([6]; first compound 0.253 µM) was 0.853 and the relative viability ([6]; first compound 0.8 µM) was 1.01. For the same molecule, the relative viability ([6]; first compound 2.53 µM) was 0.979, the relative viability ([6]; first compound 8 µM) was 0.912 and the relative viability ([7]; first compound 0.08 µM) was 0.524. It also gave a relative viability ([7]; first compound 0.253 µM) of 0.632, a relative viability ([7]; first compound 0.8 µM) of 0.533 and a relative viability ([7]; first compound 2.53 µM) of 0.535. The relative viability ([7]; first compound 8 µM) was 0.461, the relative viability ([8]; first compound 0.08 µM) was 1.11 and the relative viability ([8]; first compound 0.253 µM) was 0.966. The relative viability ([8]; first compound 0.8 µM) was 0.914, the relative viability ([8]; first compound 2.53 µM) was 1.01 and the relative viability ([8]; first compound 8 µM) was 0.966. The relative viability ([9]; first compound 0.08 µM) was 0.653, the relative viability ([9]; first compound 0.253 µM) was 0.703 and the relative viability ([9]; first compound 0.8 µM) was 0.682. The relative viability ([9]; first compound 2.53 µM) was 0.668, the relative viability ([9]; first compound 8 µM) was 0.744 and the relative viability ([10]; first compound 0.08 µM) was 1.11. It also gave a relative viability ([10]; first compound 0.253 µM) of 1.31, a relative viability ([10]; first compound 0.8 µM) of 1.11 and a relative viability ([10]; first compound 2.53 µM) of 1. For the same molecule, the relative viability ([10]; first compound 8 µM) was 0.554, the relative viability ([11]; first compound 0.08 µM) was 0.838 and the relative viability ([11]; first compound 0.253 µM) was 0.962. For the same molecule, the relative viability ([11]; first compound 0.8 µM) was 0.894, the relative viability ([11]; first compound 2.53 µM) was 0.912 and the relative viability ([11]; first compound 8 µM) was 0.771. It also gave a relative viability ([12]; first compound 0.08 µM) of 0.756, a relative viability ([12]; first compound 0.253 µM) of 0.734 and a relative viability ([12]; first compound 0.8 µM) of 0.729. It also gave a relative viability ([12]; first compound 2.53 µM) of 0.758, a relative viability ([12]; first compound 8 µM) of 0.757 and a relative viability ([13]; first compound 0.08 µM) of 1.04. The relative viability ([13]; first compound 0.253 µM) was 1.05, the relative viability ([13]; first compound 0.8 µM) was 1.09 and the relative viability ([13]; first compound 2.53 µM) was 1.07. It also gave a relative viability ([13]; first compound 8 µM) of 1.02, a relative viability ([14]; first compound 0.08 µM) of 1.04 and a relative viability ([14]; first compound 0.253 µM) of 0.965. The relative viability ([14]; first compound 0.8 µM) was 1.02, the relative viability ([14]; first compound 2.53 µM) was 0.862 and the relative viability ([14]; first compound 8 µM) was 0.916. The relative viability ([15]; first compound 0.08 µM) was 0.782, the relative viability ([15]; first compound 0.253 µM) was 0.622 and the relative viability ([15]; first compound 0.8 µM) was 0.684. For the same molecule, the relative viability ([15]; first compound 2.53 µM) was 0.741, the relative viability ([15]; first compound 8 µM) was 0.61 and the relative viability ([16]; first compound 0.08 µM) was 1.16. It also gave a relative viability ([16]; first compound 0.253 µM) of 1.15, a relative viability ([16]; first compound 0.8 µM) of 1.14 and a relative viability ([16]; first compound 2.53 µM) of 1.23. The relative viability ([16]; first compound 8 µM) was 1.05, the relative viability ([17]; first compound 0.08 µM) was 0.856 and the relative viability ([17]; first compound 0.253 µM) was 0.751. For the same molecule, the relative viability ([17]; first compound 0.8 µM) was 0.802, the relative viability ([17]; first compound 2.53 µM) was 0.736 and the relative viability ([17]; first compound 8 µM) was 0.677. It also gave a relative viability ([18]; first compound 0.08 µM) of 0.476, a relative viability ([18]; first compound 0.253 µM) of 0.428 and a relative viability ([18]; first compound 0.8 µM) of 0.472. For the same molecule, the relative viability ([18]; first compound 2.53 µM) was 0.487, the relative viability ([18]; first compound 8 µM) was 0.493 and the relative viability ([19]; first compound 0.08 µM) was 0.459. It also gave a relative viability ([19]; first compound 0.253 µM) of 0.731, a relative viability ([19]; first compound 0.8 µM) of 0.723 and a relative viability ([19]; first compound 2.53 µM) of 0.733. It also gave a relative viability ([19]; first compound 8 µM) of 0.7, a relative viability ([20]; first compound 0.08 µM) of 0.795 and a relative viability ([20]; first compound 0.253 µM) of 0.788. It also gave a relative viability ([20]; first compound 0.8 µM) of 0.764, a relative viability ([20]; first compound 2.53 µM) of 0.91 and a relative viability ([20]; first compound 8 µM) of 0.743. For the same molecule, the relative viability ([21]; first compound 0.08 µM) was 0.491, the relative viability ([21]; first compound 0.253 µM) was 0.567 and the relative viability ([21]; first compound 0.8 µM) was 0.988. The relative viability ([21]; first compound 2.53 µM) was 0.665, the relative viability ([21]; first compound 8 µM) was 0.87 and the relative viability ([22]; first compound 0.08 µM) was 0.569. For the same molecule, the relative viability ([22]; first compound 0.253 µM) was 0.582, the relative viability ([22]; first compound 0.8 µM) was 0.729 and the relative viability ([22]; first compound 2.53 µM) was 0.547. For the same molecule, the relative viability ([22]; first compound 8 µM) was 0.519.
